The text below walks through data of PubChem BioAssay AID743107 (Vanderbilt Specialized Chemistry Center, 2013).

The source made the active and inactive calls.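 Rule for the calls: active = compound leaving under 60% of the human M5 receptor calcium signal; inactive = the rest.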

The target of the assay is Muscarinic acetylcholine receptor M5 (Homo sapiens) (UniProt P08912). Nature of the assay: inhibitors of ACh-evoked M5 calcium signal – cell-based, single concentration, CHO-K1 hM5, ACh EC80 (AID 743107). The note with it: CHO-K1 hM5, calcium flux, at 10 µM, stronger effect = lower value. (In general: A change in cytosolic calcium serves as a functional read-out for many receptors and channels.)
Muscarinic acetylcholine receptor M5 (Homo sapiens), sequence (P08912 whole entry, looked up): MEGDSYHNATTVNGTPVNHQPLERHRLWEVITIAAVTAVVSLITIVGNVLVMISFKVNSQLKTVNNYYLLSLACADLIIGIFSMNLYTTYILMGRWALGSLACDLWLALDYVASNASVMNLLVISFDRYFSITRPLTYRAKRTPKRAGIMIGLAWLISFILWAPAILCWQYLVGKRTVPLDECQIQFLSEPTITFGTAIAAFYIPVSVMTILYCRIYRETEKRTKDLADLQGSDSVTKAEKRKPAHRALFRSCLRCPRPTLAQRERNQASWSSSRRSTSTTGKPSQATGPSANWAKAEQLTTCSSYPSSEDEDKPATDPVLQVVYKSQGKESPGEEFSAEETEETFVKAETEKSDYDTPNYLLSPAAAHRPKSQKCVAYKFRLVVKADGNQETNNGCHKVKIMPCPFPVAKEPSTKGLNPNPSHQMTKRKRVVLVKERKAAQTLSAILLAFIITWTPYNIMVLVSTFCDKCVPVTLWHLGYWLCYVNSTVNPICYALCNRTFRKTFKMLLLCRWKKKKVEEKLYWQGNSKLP
Regarding `CC(c1ccccn1)N(C)C(=O)c1cc(CNS(C)(=O)=O)on1` (stereo not given), the activity remaining was 80.4% (inactive).
Then `CC(=O)c1cccc(N(Cc2cc(C(=O)N(C)C(C)c3ccccn3)no2)C(=O)c2ccc(C)cc2)c1` (stereo not given), with 63.5% (inactive); and `COc1cccc(OCc2cc(C(=O)N(C)C(C)c3ccccn3)no2)c1` (stereo not given), with 79.8% (inactive); and `COc1ccccc1C(=O)NCc1cc(C(=O)N(C)C(C)c2ccccn2)no1` (stereo not given), with 76.4% (inactive).
Take `CC(c1ccccn1)N(C)C(=O)c1cc(COc2ccc(Cl)cc2)on1` (stereo not given): the activity remaining is 84.2% (inactive).
Then `CC(c1ccccn1)N(C)C(=O)c1cc(COc2cccc([N+](=O)[O-])c2)on1` (stereo not given), with 73.7% (inactive); and `CC(=O)c1cccc(N(Cc2cc(C(=O)N(C)C(C)c3ccccn3)no2)S(=O)(=O)c2ccccc2[N+](=O)[O-])c1` (stereo not given), with 60.6% (inactive); and `CC(c1ccccn1)N(C)C(=O)c1cc(CNC(=O)C(C)(C)C)on1` (stereo not given), with 77.8% (inactive).
Then `CC(c1ccccn1)N(C)C(=O)c1cc(COc2ccc(F)c(F)c2)on1` (stereo not given), with 85.3% (inactive); and `CC(c1ccccn1)N(C)C(=O)c1cc(COc2ccccc2Cl)on1` (stereo not given), with 77.2% (inactive).
Then `CC(=O)c1cccc(OCc2cc(C(=O)N3CCc4cccnc4C3)no2)c1`, with 86.8% (inactive); and `CC(=O)c1cccc(N(Cc2cc(C(=O)N(C)C(C)c3ccccn3)no2)C(=O)c2ccccc2C)c1` (stereo not given), with 67.2% (inactive); and `CC(c1ccccn1)N(C)C(=O)c1cc(CNC(=O)c2ccc(F)cc2)on1` (stereo not given), with 77% (inactive).
Regarding `CC(=O)c1cccc(N(Cc2cc(C(=O)N(C)C(C)c3ccccn3)no2)C(=O)c2ccc(F)cc2)c1` (stereo not given), the activity remaining was 71.8% (inactive).
Then `CCOc1cccc(OCc2cc(C(=O)N(C)C(C)c3ccccn3)no2)c1` (stereo not given), with 79.2% (inactive).
Turning to `CC(=O)c1cccc(OCc2cc(C(=O)N3CCc4ccccc4C3C)no2)c1` (stereo not given), the activity remaining was 81.5% (inactive).
Then `Cc1ccccc1C(=O)NCc1cc(C(=O)N(C)C(C)c2ccccn2)no1` (stereo not given), with 73.8% (inactive); and `CC(O)c1cccc(OCc2cc(C(=O)N(C)C(C)c3ccccn3)no2)c1` (stereo not given), with 69.3% (inactive).
As for `CC(c1ccccn1)N(C)C(=O)c1cc(COc2cccc(CO)c2)on1` (stereo not given), the figure is 75.5% (inactive); as for `CC(c1ccccn1)N(C)C(=O)c1cc(COc2cccc(F)c2)on1` (stereo not given), 77.1% (inactive); as for `CC(c1ccccn1)N(C)C(=O)c1cc(CNC(=O)c2ccccc2)on1` (stereo not given), 76.7% (inactive).
As for `CC(c1ccccn1)N(C)C(=O)c1cc(COc2cccc(Oc3ccccc3)c2)on1` (stereo not given), the figure is 83.1% (inactive); as for `CC(=O)c1ccc(OCc2cc(C(=O)N(C)C(C)c3ccccn3)no2)cc1` (stereo not given), 75% (inactive); as for `Cc1cccc(C(=O)NCc2cc(C(=O)N(C)C(C)c3ccccn3)no2)c1` (stereo not given), 71.5% (inactive).
Consider `CC(c1ccccn1)N(C)C(=O)c1cc(COc2ccc3c(c2)CCCC3)on1` (stereo not given), for which the activity remaining was 79% (inactive).
Then `CC(c1ccccn1)N(C)C(=O)c1cc(COc2cccc(C(F)(F)F)c2)on1` (stereo not given), with 84.1% (inactive).
Then `Cc1ccc(OCc2cc(C(=O)N(C)C(C)c3ccccn3)no2)cc1` (stereo not given), with 78.5% (inactive).
Then `Cc1ccc(C(=O)NCc2cc(C(=O)N(C)C(C)c3ccccn3)no2)cc1` (stereo not given), with 75.1% (inactive).
As for `CC(=O)c1cccc(OCc2cc(C(=O)NCc3ccccn3)no2)c1`, the activity remaining is 88.7% (inactive).
As for `CC(c1ccccn1)N(C)C(=O)c1cc(COc2ccccc2F)on1` (stereo not given), the figure is 83.7% (inactive); as for `CC(c1ccccn1)N(C)C(=O)c1cc(CNC(=O)c2ccccc2F)on1` (stereo not given), 71.8% (inactive).
Then `CC(c1ccccn1)N(C)C(=O)c1cc(COc2cccc(C=O)c2)on1` (stereo not given), with 83.1% (inactive); and `CCN(C(=O)c1cc(COc2cccc(C(C)=O)c2)on1)C(C)c1ccccn1` (stereo not given), with 14.2%.
Then `CC(Cl)c1cccc(OCc2cc(C(=O)N(C)C(C)c3ccccn3)no2)c1` (stereo not given), with 76.1% (inactive).
For `CC(=O)c1cccc(N(Cc2cc(C(=O)N(C)C(C)c3ccccn3)no2)C(=O)C2CCCC2)c1` (stereo not given), the activity remaining was 66% (inactive).
Then `COC(=O)c1cccc(OCc2cc(C(=O)N(C)C(C)c3ccccn3)no2)c1` (stereo not given), with 67.3% (inactive); and `CC(=O)c1cccc(N(Cc2cc(C(=O)N(C)C(C)c3ccccn3)no2)C(=O)C(C)(C)C)c1` (stereo not given), with 73.9% (inactive); and `CC(=O)c1cccc(OCc2cc(C(=O)NC(c3ccccn3)C(F)(F)F)no2)c1` (stereo not given), with 72.6% (inactive).
On to `CC(=O)c1ccccc1OCc1cc(C(=O)N(C)C(C)c2ccccn2)no1` (stereo not given), for which the activity remaining was 80.4% (inactive).
As for `CC(=O)c1cccc(OCc2cc(C(=O)N(C)c3cccc4cccnc34)no2)c1`, the figure is 74.2% (inactive); as for `CC(=O)c1cccc(OCc2cc(C(=O)N(C)C(C)c3cccnc3)no2)c1` (stereo not given), 78.2% (inactive); as for `Cc1ccccc1OCc1cc(C(=O)N(C)C(C)c2ccccn2)no1` (stereo not given), 79.9% (inactive).
As for `COc1ccc(OCc2cc(C(=O)N(C)C(C)c3ccccn3)no2)cc1` (stereo not given), the figure is 82.8% (inactive); as for `CC(c1ccccn1)N(C)C(=O)c1cc(CNC(=O)C2CCCC2)on1` (stereo not given), 77.7% (inactive).
Then `CC(c1ccccn1)N(C)C(=O)c1cc(COc2cccc(Br)c2)on1` (stereo not given), with 71.7% (inactive); and `CC(c1ccccn1)N(C)C(=O)c1cc(CNC(=O)c2cccc(F)c2)on1` (stereo not given), with 78.2% (inactive); and `CC(c1ccccn1)N(C)C(=O)c1cc(COc2ccc(F)cc2)on1` (stereo not given), with 82.2% (inactive).
For `CC(=O)c1cccc(OCc2cc(C(=O)N(C)Cc3ccccc3)no2)c1`, the activity remaining is 76.6% (inactive).
As for `CC(=O)c1cccc(N(Cc2cc(C(=O)N(C)C(C)c3ccccn3)no2)C(=O)c2ccccc2F)c1` (stereo not given), the activity remaining is 74.8% (inactive).
As to `CC(=O)c1cccc(OCc2cc(C(=O)Nc3ccccn3)no2)c1`, the activity remaining was 77.1% (inactive).
Then `COc1ccccc1C(=O)N(Cc1cc(C(=O)N(C)C(C)c2ccccn2)no1)c1cccc(C(C)=O)c1` (stereo not given), with 73.8% (inactive).
`CC(=O)c1cccc(NCc2cc(C(=O)N(C)C(C)c3ccccn3)no2)c1` (stereo not given): the activity remaining was 21.4%.
As for `CC(=O)c1cccc(OCc2cc(C(=O)N(C)C(C)c3ccccc3)no2)c1` (stereo not given), the figure is 52.9%; as for `CC(=O)c1cccc(N(Cc2cc(C(=O)N(C)C(C)c3ccccn3)no2)C(=O)c2cccc(C)c2)c1` (stereo not given), 65.5% (inactive).
Then `CC(=O)c1cccc(N(Cc2cc(C(=O)N(C)C(C)c3ccccn3)no2)C(=O)c2ccccc2)c1` (stereo not given), with 69.6% (inactive).
As for `CC(=O)c1cccc(N(Cc2cc(C(=O)N(C)C(C)c3ccccn3)no2)C(C)=O)c1` (stereo not given), the figure is 70.4% (inactive); as for `CC(=O)NCc1cc(C(=O)N(C)C(C)c2ccccn2)no1` (stereo not given), 76.8% (inactive).
As to `CC(=O)c1cccc(OCc2cc(C(=O)N(C)C(C)c3ccncc3)no2)c1` (stereo not given), the activity remaining was 80.9% (inactive).
As to `CC(=O)c1cccc(N(Cc2cc(C(=O)N(C)C(C)c3ccccn3)no2)C(=O)c2cccc(F)c2)c1` (stereo not given), the activity remaining is 70% (inactive).
Regarding `CC(=O)c1cccc(OCc2cc(C(=O)N(C)c3ccccn3)no2)c1`, the activity remaining is 77.8% (inactive).
